Test results as given in patent publication US12558368B2, “Compositions and devices for systemic delivery of uridine” (PHARMA CINQ, LLC, priority 2018, dated 2026).

Legend:
[1] = test system: mortality caused by 3-nitropropionic acid (inhibitor of Complex II of the mitochondrial respiratory chain); test: Protection against mortality caused by 3-nitropropionic acid (Example 2; uridine, Na(DL-BHB), Na(D-BHB)); format: in vivo, Female CD-1 mice; settings: 3-NP 60 mg/kg/day i.p., s.c. uridine 200 mg/kg t.i.d. and/or Na(DL-BHB) or Na(D-BHB) 328 mg/kg t.i.d.; for Median Survival: 12 day study; for % Survival: end of 12 day study, 10 mice per group
Protocol: Mitochondrial dysfunction was produced by daily administration of 3-nitropropionic acid (60 mg/kg/day) by intraperitoneal injection. Groups of mice also received saline (control), uridine, DL-BHB, D-BHB, and combinations of uridine and D-BHB and DL-BHB as indicated below. Both D- and DL-BHB were administered as the water soluble sodium salts: Na(D-BHB) (Toronto Research Chemicals, catalog #H833025) and Na(DL-BHB) (VWR International, catalog #200012-200).
• 1. Vehicle Control—0.9% saline b.i.d. • 2. Uridine 200 mg/kg t.i.d. • 3. Na (DL-BHB) 328 mg/kg t.i.d. • 4. Na (D-BHB) 328 mg/kg t.i.d. • 5. Uridine 200 mg/kg+Na (DL-BHB) 328 mg/kg t.i.d. • 6. Uridine 200 mg/kg+Na (D-BHB) 328 mg/kg t.i.d.
Survival times (median survival; the time point at which 50% of animals in a group had died) and percent survival at the end of the 12 day study were used to quantify and compare protective effects of the test agents.
Female CD-1 mice at approximately 16 weeks of age were divided into weight-matched groups of 10 mice each. All mice received daily intraperitoneal injections of 3-NP (60 mg/kg) in a volume of 0.01 ml per gram of body weight at 5 PM.
The therapeutic treatments were administered by subcutaneous injection in a volume of 0.01 ml/gram of body weight three times per day, at 7 AM and 12 PM and 4 PM. 3-NP was administered at 5 PM on each of the consecutive days of the experiment. Body weights were recorded each day to adjust drug doses as mice lost weight during repeated treatment with 3-NP. Body weight was graphed for the various groups of mice until the group size decreased below 3.

[2] = test system: mortality caused by 3-nitropropionic acid (inhibitor of Complex II of the mitochondrial respiratory chain); test: Protection against mortality caused by 3-nitropropionic acid at 65 or 70 mg/kg/day (Example 3; uridine, Na(D-BHB)); format: in vivo, Female CD-1 mice; settings: s.c. uridine 200 mg/kg t.i.d. and/or Na(D-BHB) 985 mg/kg t.i.d.; for % Survival: end of study, 10 mice per group
Excerpt: Subcutaneous administration of therapeutic agents is a suitable route of administration for emergency drugs that are intended to be used in people with traumatic brain injury, stroke or asphyxia, where the patient may not be capable of ingesting oral medications or may be in a situation where it is difficult to place an intravenous catheter. Subcutaneous drug administration is practical, but the composition must conform to volumes and osmolality values that are known to be compatible with this route of administration; excessively high osmolality can cause local edema, and volumes must be low enough for injection without problematic back pressure. Compositions comprising uridine, sodium beta-hydroxybutyrate and a combination of the two, with the osmolality restricted to a maximum of 800 milliosmoles/liter (a value known to be acceptable for subcutaneous fluid administration) were tested in a model of whole-body energy failure induced by daily intraperitoneal injections of 3-nitropropionic acid at two dose levels, 65 mg/kg/day and 70 mg/kg/day.
Survival times (median survival; the time point at which 50% of animals in a group had died) and percent survival at the end of a 13 day study were used to quantify and compare protective effects of the test agents.
Female CD-1 mice at approximately 16 weeks of age were divided into weight-matched groups of 10 mice each. All mice received daily intraperitoneal injections of 3-NP (65 mg/kg or 70 mg/kg) in a volume of 0.01 ml per gram of body weight at 5 PM.
The therapeutic treatments were administered by subcutaneous injection in a volume of 0.02 ml/gram of body weight three times per day, at 7 AM and 12 PM and 4 PM. 3-NP was administered at 5 PM on each of the consecutive days of the experiment. Body weights were recorded each day to adjust drug doses as mice lost weight during repeated treatment with 3-NP. D-BHB was administered as the water soluble sodium salt Na(D-BHB) (Toronto Research Chemicals, catalog #H833025.
1. Vehicle Control—0.9% saline t.i.d.
2. Uridine 200 mg/kg t.i.d.
3. Na(D-BHB) 985 mg/kg t.i.d.
4. Uridine 200 mg/kg+Na(D-BHB) 985 mg/kg t.i.d.

[3] = Pharmacokinetics of plasma uridine and D-BHB after subcutaneous administration; format: in vivo, Female CD-1 mice; settings: mice
Protocol: Groups of 8 mice (Female CD-1 mice, approximately 16 weeks old) were treated with subcutaneous uridine or uridine plus Na(D-BHB) as indicated in the table below. D-BHB was administered as the water soluble sodium salt Na(D-BHB) (Toronto Research Chemicals, catalog #H833025
• 1. Group 1 (200 mg/kg Uridine+Na(D-BHB) received 10 mg/ml uridine and 49.26 mg/ml Na(D-BHB) (0.02 ml/g bw). • 2. Group 2 (300 mg/kg Uridine+Na(D-BHB) received 15 mg/ml uridine and 49.26 mg/ml Na(D-BHB) (0.02 ml/g bw). • 3. Group 3 (400 mg/kg Uridine+Na(D-BHB) received 20 mg/ml uridine and 49.26 mg/ml Na(D-BHB) (0.02 ml/g bw). • 4. Group 4 (400 mg/kg Uridine) received 20 mg/ml uridine (0.02 ml/g bw).
Blood samples were obtained from the retro-orbital plexus at time points of 15, 30, 60 and 120 minutes after drug injection. Two blood samples (<200 microliters) were collected from each mouse into heparinized polyethylene tubes, with 4 mice bled at 15 and 60 minutes, and the other 4 mice in a group were bled at 30 and 120 minutes. Plasma samples were obtained by centrifugation, and were deproteinized and analyzed for uridine and uracil by an LC/MS method. Plasma D-BHB was measured in the same samples by a commercial enzymatic color-change assay.
Rodents degrade uridine to uracil more rapidly and extensively than do humans, who have lower activities of the enzyme uridine phosphorylase. Therefore, it is important to take into account plasma uracil concentrations in rodents for optimum translation of rodent pharmacokinetic results to the human situation. The sum of uridine+uracil in rodents is a better reflection of plasma uridine equivalents than is uridine alone for translation to other animal models or to human dosing.

[4] = humans, cited from earlier work
[5] = test system: mortality caused by 3-nitropropionic acid (inhibitor of Complex II of the mitochondrial respiratory chain); test: Protection against mortality caused by 3-nitropropionic acid (Example 1; uridine and MgBHB); format: in vivo, Female CD-1 mice; settings: 3-NP 60 mg/kg/day i.p., s.c. uridine 300 mg/kg b.i.d. and/or MgBHB 300 mg/kg b.i.d.; for Median Survival: 13 day study; for % Survival: end of 13 day study, 10 mice per group
Excerpt: 3-nitropropionic acid (3-NP) is an inhibitor of Complex II of the mitochondrial respiratory chain. Administration of 3-NP to experimental animals has been used as a model for mitochondrial diseases, Huntington's disease and pathological consequences of hypoxia. Daily dosing with 3-NP causes energy failure in the brain, heart and other tissues, resulting in mortality after several days. A 3-NP dosing regimen that caused 100% mortality in mice after approximately one week was selected for further evaluation of mortality, which is indicative of neuroprotective and cardioprotective effects, of compositions of the invention in a model of disorders caused by mitochondrial dysfunction. Survival times (median survival; the time point at which 50% of animals in a group had died) and percent survival at the end of the 13 day study were used to quantify protective effects of the test agents.
Female CD-1 mice at approximately 16 weeks of age were divided into weight-matched groups of 10 mice each. All mice received daily intraperitoneal injections of 3-NP (60 mg/kg) in a volume of 0.01 ml per gram of body weight. 3-NP was administered at 2 PM on each of the 13 consecutive days of the experiment. Body weights were recorded each day to adjust drug doses as mice lost weight during repeated treatment with 3-NP.
The comparative efficacy of uridine (VWR International) and the magnesium salt of racemic beta-hydroxybutyrate (magnesium β-hydroxybutyrate trihydrate; MgBHB·3H2O) (Nutra Planet) were assessed, as was the efficacy of a combination of uridine and MgBHB. All of the therapeutic treatments were administered by subcutaneous injection in a volume of 0.02 ml/gram of body weight twice per day, at 7 AM and 1 PM.
• 1. Vehicle Control—0.9% saline b.i.d. • 2. Uridine 300 mg/kg b.i.d. • 3. MgBHB 300 mg/kg b.i.d.

[6] = s.c. Na(D-BHB) 985.1 mg/kg with uridine

| Compound | Median Survival [1] [days] | Median Survival ([1]; listed as Na(DL-BHB)) [days] | % Survival [1] | % Survival ([1]; listed as Na(DL-BHB)) [%] | Median Survival ([2]; 3-NP 65 mg/kg/day i.p.) [days] | % Survival ([2]; 3-NP 65 mg/kg/day i.p.) | Median Survival ([2]; 3-NP 70 mg/kg/day i.p.) [days] | % Survival ([2]; 3-NP 70 mg/kg/day i.p.) | Maximum D-BHB concentration in plasma [3, 6] | Tmax of plasma D-BHB [3, 6] [min] | Median Survival ([1]; listed as Na(D-BHB)) [days] | % Survival ([1]; listed as Na(D-BHB)) [%] | Local tolerability of infusion into peripheral veins ([4]; infusion into accessible peripheral veins) | Dose-limiting toxicity during intravenous infusion ([4]; intravenous infusion) | Tmax ([3]; female, CD-1, mouse, plasma, sc, s.c. uridine 200-400 mg/kg with or without Na(D-BHB) 985.1 mg/kg, read-out: Tmax of plasma uridine (and uridine+uracil)) [min] | Plasma uridine (and uridine+uracil) C max values ([3]; s.c. uridine 200, 300, 400 mg/kg) | Median Survival [5] [days] | % Survival [5] |
| --- | --- | --- | --- | --- | --- | --- | --- | --- | --- | --- | --- | --- | --- | --- | --- | --- | --- | --- |
| CC(O)CC(=O)[O-].[Na+] (racemic) [Na (DL-BHB)] | 8 | 7.5 | 20% (2/10) | 20 |  |  |  |  |  |  |  |  |  |  |  |  |  |  |
| C[C@@H](O)CC(=O)[O-].[Na+] [Na (D-BHB)] | 7.5 |  | 10% (1/10) |  | 10.5 | 40% (4/10) | 6 | 0% (0/10) | approximately 3 millimolar | 15 | 8 | 10 |  |  |  |  |  |  |
| O=c1ccn([C@@H]2O[C@H](CO)[C@@H](O)[C@H]2O)c(=O)[nH]1 [Uridine, uridine] | 12 |  |  |  | 9 | 30% (3/10) | 6.5 | 10% (1/10) |  |  |  |  | caused local phlebitis | Hyperthermia was encountered as a dose-limiting toxicity | 15 to 30 | dose-dependent | 12 | 40% (4/10) |
| magnesium β-hydroxybutyrate trihydrate [MgBHB] |  |  |  |  |  |  |  |  |  |  |  |  |  |  |  |  | 10 | 20% (2/10) |
